# Measured values from ChEMBL document CHEMBL1154624, “Novel class of LIM-kinase 2 inhibitors for the treatment of ocular hypertension and associated glaucoma” (J Med Chem, 2009).
# System: PTM
# Settings: Sus scrofa, at 10 nM
# Description: Inhibition of LIMK2 in pig PTM cells assessed as inhibition of cofilin-phosphorylation at 10 nM by Western blot
row,Compound,inhibition [%]
1,Cc1c[nH]c2ncnc(N3CCN(/C(=N/C#N)Nc4cccc(C(F)(F)F)c4)[C@@H](C)C3)c12,12
2,Cc1c[nH]c2ncnc(N3CCN(C(=O)Nc4cccc(OC(=O)N(C)C)c4)[C@@H](C)C3)c12,61
3,Cc1c[nH]c2ncnc(N3CCN(C(=O)Nc4cccc(C(=O)NCCO)c4)[C@@H](C)C3)c12,0
4,Cc1c[nH]c2ncnc(N3CCN(C(=O)Nc4cccc(C(=O)NC(CO)CO)c4)[C@@H](C)C3)c12,27
5,Cc1c[nH]c2ncnc(N3CCN(/C(=N/C#N)Nc4cccc(C(C)(C)C)c4)[C@@H](C)C3)c12,10
6,Cc1c[nH]c2ncnc(N3CCN(/C(=N/C#N)Nc4cccc(C(=O)NC(C)C)c4)[C@@H](C)C3)c12,0
7,Cc1c[nH]c2ncnc(N3CCN(/C(=N/C#N)Nc4cccc(Cl)c4)[C@@H](C)C3)c12,49
8,Cc1c[nH]c2ncnc(N3CCN(/C(=N/C#N)Nc4cccc(C#N)c4)[C@@H](C)C3)c12,18
9,Cc1c[nH]c2ncnc(N3CCN(C(=O)Nc4cccc(C(=O)NC(C)C)c4)[C@@H](C)C3)c12,0
10,Cc1c[nH]c2ncnc(N3CCN(/C(=N/C#N)Nc4cccc(C(=O)NCCO)c4)[C@@H](C)C3)c12,9
11,Cc1c[nH]c2ncnc(N3CCN(/C(=N/S(C)(=O)=O)Nc4cccc(Br)c4)[C@@H](C)C3)c12,48
12,Cc1c[nH]c2ncnc(N3CCN(C(=O)Nc4cccc(Cl)c4)[C@@H](C)C3)c12,0
13,Cc1c[nH]c2ncnc(N3CCN(/C(=N/C#N)Nc4cccc(S(=O)(=O)NCCO)c4)[C@@H](C)C3)c12,22
14,Cc1c[nH]c2ncnc(N3CCN(/C(=N/C#N)Nc4cccc(C(=O)NCCN(C)C)c4)[C@@H](C)C3)c12,0
15,Cc1c[nH]c2ncnc(N3CCN(/C(=N/C#N)Nc4cccc(Br)c4)[C@@H](C)C3)c12,50
16,Cc1c[nH]c2ncnc(N3CCN(/C(=N/C#N)Nc4ccc(F)c(Br)c4)[C@@H](C)C3)c12,63
17,Cc1c[nH]c2ncnc(N3CCN(C(=O)Nc4ccc(F)c(Br)c4)[C@@H](C)C3)c12,51
18,Cc1c[nH]c2ncnc(N3CCN(/C(=N/C#N)Nc4cccc(F)c4)[C@@H](C)C3)c12,39
19,Cc1c[nH]c2ncnc(N3CCN(/C(=N/C#N)Nc4cccc(S(=O)(=O)NC(C)C)c4)[C@@H](C)C3)c12,0

# System: Mus musculus
# Experiment: Inhibition of dexamethasone-induced ocular hypertension in C57BL/6J Tyr c-Brd x 129S5/SvEvBrD hybrid mouse assessed as reduction of intraocular pressure at 5 ug after 1 hr administered as xanthan gum formulation
# Format: functional, Eye
# Settings: not given
row,Compound,Activity [mmHg]
1,Cc1c[nH]c2ncnc(N3CCN(C(=O)Nc4cccc(OC(=O)N(C)C)c4)[C@@H](C)C3)c12,3.6
2,Cc1c[nH]c2ncnc(N3CCN(/C(=N/C#N)Nc4cccc(Br)c4)[C@@H](C)C3)c12,3.7
3,Cc1c[nH]c2ncnc(N3CCN(C(=O)Nc4ccc(F)c(Br)c4)[C@@H](C)C3)c12,3.6

# System: not listed separately
# Experiment: Increase in outflow facility in pig eye at 10 nM by eye-perfusion assay
# Format: functional, Sus scrofa
# Settings: not given
row,Compound,Activity [%]
1,C[C@@H](N)c1ccc(C(=O)Nc2ccnc3[nH]ccc23)cc1 [Y-39983],28

# Species on record: Homo sapiens
# Experiment: Selectivity ratio of IC50 for human LIMK2 to IC50 for human ROCK2
# Settings: not given
row,Compound,Ratio IC50
1,Cc1c[nH]c2ncnc(N3CCN(C(=O)Nc4cccc(OC(=O)N(C)C)c4)[C@@H](C)C3)c12,> 900
2,Cc1c[nH]c2ncnc(N3CCN(/C(=N/C#N)Nc4cccc(Br)c4)[C@@H](C)C3)c12,> 900
3,Cc1c[nH]c2ncnc(N3CCN(/C(=N/C#N)Nc4ccc(F)c(Br)c4)[C@@H](C)C3)c12,> 900
4,Cc1c[nH]c2ncnc(N3CCN(C(=O)Nc4ccc(F)c(Br)c4)[C@@H](C)C3)c12,88

# Molecular target: LIM domain kinase 1 (Homo sapiens, UniProt P53667)
# Sequence (P53667 whole entry, the tested form may be a part): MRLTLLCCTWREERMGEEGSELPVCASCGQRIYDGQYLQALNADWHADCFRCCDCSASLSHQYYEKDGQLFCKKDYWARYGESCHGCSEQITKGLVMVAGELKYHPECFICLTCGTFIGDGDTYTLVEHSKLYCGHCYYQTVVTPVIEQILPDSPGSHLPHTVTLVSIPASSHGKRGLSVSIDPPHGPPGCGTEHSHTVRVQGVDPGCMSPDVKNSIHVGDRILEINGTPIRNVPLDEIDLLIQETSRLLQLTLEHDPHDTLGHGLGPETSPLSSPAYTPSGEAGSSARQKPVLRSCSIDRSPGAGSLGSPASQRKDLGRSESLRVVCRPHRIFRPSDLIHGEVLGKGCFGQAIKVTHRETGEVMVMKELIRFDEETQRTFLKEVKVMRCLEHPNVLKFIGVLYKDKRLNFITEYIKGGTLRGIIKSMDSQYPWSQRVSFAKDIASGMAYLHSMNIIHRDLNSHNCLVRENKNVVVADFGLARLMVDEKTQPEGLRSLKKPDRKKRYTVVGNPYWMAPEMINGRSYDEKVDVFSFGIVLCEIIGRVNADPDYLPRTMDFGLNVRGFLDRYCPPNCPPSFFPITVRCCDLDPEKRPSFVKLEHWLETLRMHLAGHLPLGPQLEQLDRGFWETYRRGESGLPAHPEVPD
# Experiment: Inhibition of LIMK1
# Settings: not given
row,Compound,IC50 [nM]
1,Cc1c[nH]c2ncnc(N3CCN(C(=O)Nc4cccc(OC(=O)N(C)C)c4)[C@@H](C)C3)c12,3.2
2,Cc1c[nH]c2ncnc(N3CCN(/C(=N\C#N)Nc4cccc(Br)c4)[C@@H](C)C3)c12,0.5
3,Cc1c[nH]c2ncnc(N3CCN(/C(=N/C#N)Nc4ccc(F)c(Br)c4)[C@@H](C)C3)c12,3.7
4,Cc1c[nH]c2ncnc(N3CCN(C(=O)Nc4ccc(F)c(Br)c4)[C@@H](C)C3)c12,6.6

# Species on record: Homo sapiens
# Experiment: Selectivity ratio of IC50 for human LIMK2 to IC50 for human ROCK1
# Settings: not given
row,Compound,Ratio IC50
1,Cc1c[nH]c2ncnc(N3CCN(C(=O)Nc4cccc(OC(=O)N(C)C)c4)[C@@H](C)C3)c12,> 100
2,Cc1c[nH]c2ncnc(N3CCN(/C(=N/C#N)Nc4cccc(Br)c4)[C@@H](C)C3)c12,> 100
3,Cc1c[nH]c2ncnc(N3CCN(/C(=N/C#N)Nc4ccc(F)c(Br)c4)[C@@H](C)C3)c12,> 100
4,Cc1c[nH]c2ncnc(N3CCN(C(=O)Nc4ccc(F)c(Br)c4)[C@@H](C)C3)c12,16

# System: Mus musculus
# Experiment: Inhibition of dexamethasone-induced ocular hypertension in C57BL/6J Tyr c-Brd x 129S5/SvEvBrD hybrid mouse assessed as reduction of intraocular pressure after 2 hrs administered as cosolvent/HPMC based formulation
# Format: functional, organism-based
# Settings: Eye
row,Compound,Activity
1,Cc1c[nH]c2ncnc(N3CCN(C(=O)Nc4cccc(OC(=O)N(C)C)c4)[C@@H](C)C3)c12,Dose-dependent effect

# Molecular target: LIM domain kinase 2 (Homo sapiens, UniProt P53671)
# Sequence (P53671 whole entry, the tested form may be a part): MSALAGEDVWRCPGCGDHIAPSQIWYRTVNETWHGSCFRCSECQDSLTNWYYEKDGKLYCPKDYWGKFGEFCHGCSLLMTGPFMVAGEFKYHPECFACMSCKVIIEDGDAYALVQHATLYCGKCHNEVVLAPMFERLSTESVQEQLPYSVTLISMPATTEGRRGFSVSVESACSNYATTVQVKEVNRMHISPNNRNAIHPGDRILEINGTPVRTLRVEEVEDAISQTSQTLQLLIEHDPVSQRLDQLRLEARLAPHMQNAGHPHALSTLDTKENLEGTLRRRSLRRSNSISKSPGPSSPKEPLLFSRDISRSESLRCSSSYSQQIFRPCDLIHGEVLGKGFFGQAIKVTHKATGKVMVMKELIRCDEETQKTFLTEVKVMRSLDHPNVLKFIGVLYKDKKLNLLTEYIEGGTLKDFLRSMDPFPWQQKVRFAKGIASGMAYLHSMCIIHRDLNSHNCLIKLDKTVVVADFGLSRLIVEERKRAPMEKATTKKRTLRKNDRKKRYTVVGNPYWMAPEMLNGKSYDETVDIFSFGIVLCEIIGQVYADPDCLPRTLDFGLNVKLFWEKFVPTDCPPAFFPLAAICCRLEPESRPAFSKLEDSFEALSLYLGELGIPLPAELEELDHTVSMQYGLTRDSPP
# Experiment: Inhibition of human recombinant LIMK2 expressed in baculovirus-Sf9 system by scintillation counting
# Format: cell-based
# Settings: not given
row,Compound,IC50 [nM]
1,Cc1cccc(NC(=O)N2CCN(c3ncnc4[nH]cc(C)c34)CC2)c1,92
2,Cc1c[nH]c2ncnc(N3CCN(/C(=N/C#N)Nc4cccc(C(F)(F)F)c4)[C@@H](C)C3)c12,1.9
3,COc1cccc(NC(=O)N2CCN(c3ncnc4[nH]cc(C)c34)CC2)c1,140
4,Cc1c[nH]c2ncnc(N3CCN(C(=O)Nc4cccc(OC(=O)N(C)C)c4)[C@@H](C)C3)c12,1.2
5,Cc1c[nH]c2ncnc(N3CCC(C(=O)Nc4cccc(Oc5ccccc5)c4)CC3)c12,64
6,Cc1c[nH]c2ncnc(N3CCN(C(=O)Nc4cccc(C(=O)NCCO)c4)[C@@H](C)C3)c12,3
7,Cc1c[nH]c2ncnc(N3CCC(C(=O)Nc4ccccc4)CC3)c12,800
8,C[C@H]1CN(c2ncnc3[nH]cc(Cl)c23)CCN1/C(=N/C#N)Nc1cccc(Br)c1,1.2
9,Cc1c[nH]c2ncnc(N3CCN(C(=O)Nc4cccc(Br)c4)[C@H](C)C3)c12,37
10,C[C@H]1CN(c2nc(Cl)nc3[nH]ccc23)CCN1C(=Nc1cccc(Br)c1)NC#N,> 1000
11,Cc1c[nH]c2ncnc(N3CCN(C(=O)Nc4cccc(C(=O)NC(CO)CO)c4)[C@@H](C)C3)c12,3
12,Cc1c[nH]c2ncnc(N3CCN(/C(=N/C#N)Nc4cccc(Br)c4)CC3)c12,11
13,Cc1c[nH]c2ncnc(N3CCN(C(=O)Nc4cccc(Br)c4)[C@@H](C)C3)c12,3.9
14,COc1ccc(NC(=O)C2CCN(c3ncnc4[nH]cc(C)c34)CC2)cc1,1500
15,Cc1c[nH]c2ncnc(N3CCN(/C(=N/C#N)Nc4cccc(Cl)c4)[C@@H](C)C3)c12,1.6
16,Cc1cccc(NC(=O)C2CCN(c3ncnc4[nH]cc(C)c34)CC2)c1,650
17,Cc1c[nH]c2ncnc(N3CCN(/C(=N/C#N)Nc4cccc(C#N)c4)[C@@H](C)C3)c12,1.2
18,Cc1c[nH]c2ncnc(N3CCN(C(=Nc4cccc(C(C)(C)C)c4)NC#N)[C@@H](C)C3)c12,1.1
19,CC1CN(c2ncnc3[nH]ccc23)CCN1/C(=N/C#N)Nc1cccc(Br)c1 (racemic),8.1
20,Cc1c[nH]c2ncnc(N3CCN(C(=O)Nc4cccc(C(=O)NC(C)C)c4)[C@@H](C)C3)c12,5.5
21,Cc1c[nH]c2ncnc(N3C[C@@H](C)N(C(=O)Nc4cccc(Br)c4)[C@@H](C)C3)c12,133

row,Compound,IC50 [nM]
1,Cc1c[nH]c2ncnc(N3CCC(C(=O)Nc4cccc(Br)c4)CC3)c12,300
2,Cc1c[nH]c2ncnc(N3CCN(/C(=N/S(C)(=O)=O)Nc4cccc(Br)c4)[C@@H](C)C3)c12,6.8
3,Cc1cc2c(N3CCN(/C(=N/C#N)Nc4cccc(Br)c4)[C@@H](C)C3)ncnc2[nH]1,4.2
4,Cc1c[nH]c2ncnc(N3CCN(C(=O)Nc4cccc(Cl)c4)[C@@H](C)C3)c12,2.3
5,Cc1c[nH]c2ncnc(N3CCN(C(=Nc4cccc(S(=O)(=O)NCCO)c4)NC#N)[C@@H](C)C3)c12,2.9
6,Cc1c[nH]c2ncnc(N3CCN(/C(=N/C#N)Nc4cccc(C(=O)NCCN(C)C)c4)[C@@H](C)C3)c12,3.4
7,Cc1c[nH]c2ncnc(N3CCN(/C(=N\C#N)Nc4cccc(Br)c4)[C@@H](C)C3)c12,0.9
8,Cc1ccc(NC(=O)C2CCN(c3ncnc4[nH]cc(C)c34)CC2)cc1,1300
9,Cc1c[nH]c2ncnc(N3CCN(/C(=N/C#N)Nc4cccc(Br)c4)[C@@H](C(C)C)C3)c12,4.2
10,Cc1c[nH]c2ncnc(N3CC4CC3CN4C(=Nc3cccc(Br)c3)NC#N)c12 (stereo not given),76
11,Cc1c[nH]c2ncnc(N3CCN(/C(=N/C#N)Nc4ccc(F)c(Br)c4)[C@@H](C)C3)c12,1.5
12,Cc1c[nH]c2ncnc(N3CCN(C(=Nc4cccc(C(=O)NCCO)c4)NC#N)[C@@H](C)C3)c12,0.8
13,Cc1c[nH]c2ncnc(N3CCN(C(=O)Nc4ccc(F)c(Br)c4)[C@@H](C)C3)c12,3.2
14,COc1cccc(NC(=O)C2CCN(c3ncnc4[nH]cc(C)c34)CC2)c1,520
15,Cc1c[nH]c2ncnc(N3C[C@H](C)N(C(=Nc4cccc(Br)c4)NC#N)C[C@H]3C)c12,3.9
16,Cc1c[nH]c2ncnc(N3CCN(/C(=N/C#N)Nc4cccc(F)c4)[C@@H](C)C3)c12,1.8
17,Cc1c[nH]c2ncnc(N3CCN(C(=Nc4cccc(C(=O)NC(C)C)c4)NC#N)[C@@H](C)C3)c12,3.5
18,Cc1c[nH]c2ncnc(N3CCN(/C(=N/C#N)Nc4cccc(S(=O)(=O)NC(C)C)c4)[C@@H](C)C3)c12,1.7
19,Cc1c[nH]c2ncnc(N3CC4CCC(C3)N4C(=O)Nc3cccc(Br)c3)c12,16
20,Cc1ccccc1NC(=O)C1CCN(c2ncnc3[nH]cc(C)c23)CC1,11500
21,Cc1c[nH]c2ncnc(N3CCN(C(=O)Nc4cccc(Br)c4)CC3)c12,38

# System: not listed separately
# Experiment: Increase in outflow facility in pig eye at 100 nM by eye-perfusion assay
# Format: functional, Sus scrofa
# Settings: not given
row,Compound,Activity [%]
1,Cc1c[nH]c2ncnc(N3CCN(C(=O)Nc4cccc(OC(=O)N(C)C)c4)[C@@H](C)C3)c12,30
2,Cc1c[nH]c2ncnc(N3CCN(/C(=N/C#N)Nc4cccc(Br)c4)[C@@H](C)C3)c12,30

# System: Mus musculus
# Experiment: Inhibition of dexamethasone-induced ocular hypertension in C57BL/6J Tyr c-Brd x 129S5/SvEvBrD hybrid mouse assessed as reduction of intraocular pressure at 3 ug after 2 hrs administered as cosolvent/HPMC based formulation
# Format: functional, Eye
# Settings: not given
row,Compound,Activity [mmHg]
1,Cc1c[nH]c2ncnc(N3CCN(C(=O)Nc4cccc(OC(=O)N(C)C)c4)[C@@H](C)C3)c12,-3.2
2,CC(C)(C)NC[C@H](O)COc1nsnc1N1CCOCC1 [TIMOLOL],-5.2

# Molecular target: Rho-associated protein kinase 1 (Homo sapiens, UniProt Q13464)
# Sequence (Q13464 whole entry): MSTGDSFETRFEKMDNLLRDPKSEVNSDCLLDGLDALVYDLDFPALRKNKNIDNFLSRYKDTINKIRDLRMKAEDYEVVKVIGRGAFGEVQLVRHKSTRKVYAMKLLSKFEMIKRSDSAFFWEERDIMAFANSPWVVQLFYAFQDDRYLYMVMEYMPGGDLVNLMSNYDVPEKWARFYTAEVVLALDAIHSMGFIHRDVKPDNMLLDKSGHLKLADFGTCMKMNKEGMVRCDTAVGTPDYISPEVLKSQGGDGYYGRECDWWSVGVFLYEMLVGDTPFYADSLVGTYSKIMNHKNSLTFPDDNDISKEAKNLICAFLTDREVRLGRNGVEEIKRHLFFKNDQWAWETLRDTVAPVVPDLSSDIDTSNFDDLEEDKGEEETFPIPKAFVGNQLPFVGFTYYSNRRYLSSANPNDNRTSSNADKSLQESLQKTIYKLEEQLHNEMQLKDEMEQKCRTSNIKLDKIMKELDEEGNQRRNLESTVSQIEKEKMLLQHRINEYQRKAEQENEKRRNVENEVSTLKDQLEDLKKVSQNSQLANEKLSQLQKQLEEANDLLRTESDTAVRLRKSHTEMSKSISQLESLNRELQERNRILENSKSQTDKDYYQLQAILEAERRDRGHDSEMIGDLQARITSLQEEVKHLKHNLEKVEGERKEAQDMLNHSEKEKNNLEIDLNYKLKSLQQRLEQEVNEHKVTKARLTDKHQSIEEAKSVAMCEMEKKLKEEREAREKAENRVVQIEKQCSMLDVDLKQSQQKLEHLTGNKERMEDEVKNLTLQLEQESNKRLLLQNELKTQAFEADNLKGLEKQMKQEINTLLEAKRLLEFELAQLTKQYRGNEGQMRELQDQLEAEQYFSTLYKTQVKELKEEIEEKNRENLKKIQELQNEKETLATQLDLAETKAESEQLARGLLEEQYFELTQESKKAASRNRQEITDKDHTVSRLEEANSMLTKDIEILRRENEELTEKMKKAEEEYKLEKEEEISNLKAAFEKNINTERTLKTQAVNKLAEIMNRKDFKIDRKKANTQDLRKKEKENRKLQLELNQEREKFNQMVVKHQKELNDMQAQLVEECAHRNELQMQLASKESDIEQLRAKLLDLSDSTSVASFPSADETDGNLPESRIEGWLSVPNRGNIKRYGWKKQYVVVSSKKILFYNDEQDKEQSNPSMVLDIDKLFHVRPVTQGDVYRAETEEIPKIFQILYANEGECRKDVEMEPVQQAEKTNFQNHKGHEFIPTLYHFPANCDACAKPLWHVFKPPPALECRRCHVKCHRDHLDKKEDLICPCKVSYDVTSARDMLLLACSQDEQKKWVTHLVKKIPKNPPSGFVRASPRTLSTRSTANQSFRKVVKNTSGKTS
# Experiment: Inhibition of human ROCK1 expressed in baculovirus system
# Settings: not given
row,Compound,IC50 [nM]
1,Cc1c[nH]c2ncnc(N3CCN(C(=O)Nc4cccc(OC(=O)N(C)C)c4)[C@@H](C)C3)c12,490
2,Cc1c[nH]c2ncnc(N3CCN(/C(=N\C#N)Nc4cccc(Br)c4)[C@@H](C)C3)c12,260
3,Cc1c[nH]c2ncnc(N3CCN(/C(=N/C#N)Nc4ccc(F)c(Br)c4)[C@@H](C)C3)c12,310
4,Cc1c[nH]c2ncnc(N3CCN(C(=O)Nc4ccc(F)c(Br)c4)[C@@H](C)C3)c12,51

# Molecular target: Rho-associated protein kinase 2 (Homo sapiens, UniProt O75116)
# Sequence (O75116 whole entry): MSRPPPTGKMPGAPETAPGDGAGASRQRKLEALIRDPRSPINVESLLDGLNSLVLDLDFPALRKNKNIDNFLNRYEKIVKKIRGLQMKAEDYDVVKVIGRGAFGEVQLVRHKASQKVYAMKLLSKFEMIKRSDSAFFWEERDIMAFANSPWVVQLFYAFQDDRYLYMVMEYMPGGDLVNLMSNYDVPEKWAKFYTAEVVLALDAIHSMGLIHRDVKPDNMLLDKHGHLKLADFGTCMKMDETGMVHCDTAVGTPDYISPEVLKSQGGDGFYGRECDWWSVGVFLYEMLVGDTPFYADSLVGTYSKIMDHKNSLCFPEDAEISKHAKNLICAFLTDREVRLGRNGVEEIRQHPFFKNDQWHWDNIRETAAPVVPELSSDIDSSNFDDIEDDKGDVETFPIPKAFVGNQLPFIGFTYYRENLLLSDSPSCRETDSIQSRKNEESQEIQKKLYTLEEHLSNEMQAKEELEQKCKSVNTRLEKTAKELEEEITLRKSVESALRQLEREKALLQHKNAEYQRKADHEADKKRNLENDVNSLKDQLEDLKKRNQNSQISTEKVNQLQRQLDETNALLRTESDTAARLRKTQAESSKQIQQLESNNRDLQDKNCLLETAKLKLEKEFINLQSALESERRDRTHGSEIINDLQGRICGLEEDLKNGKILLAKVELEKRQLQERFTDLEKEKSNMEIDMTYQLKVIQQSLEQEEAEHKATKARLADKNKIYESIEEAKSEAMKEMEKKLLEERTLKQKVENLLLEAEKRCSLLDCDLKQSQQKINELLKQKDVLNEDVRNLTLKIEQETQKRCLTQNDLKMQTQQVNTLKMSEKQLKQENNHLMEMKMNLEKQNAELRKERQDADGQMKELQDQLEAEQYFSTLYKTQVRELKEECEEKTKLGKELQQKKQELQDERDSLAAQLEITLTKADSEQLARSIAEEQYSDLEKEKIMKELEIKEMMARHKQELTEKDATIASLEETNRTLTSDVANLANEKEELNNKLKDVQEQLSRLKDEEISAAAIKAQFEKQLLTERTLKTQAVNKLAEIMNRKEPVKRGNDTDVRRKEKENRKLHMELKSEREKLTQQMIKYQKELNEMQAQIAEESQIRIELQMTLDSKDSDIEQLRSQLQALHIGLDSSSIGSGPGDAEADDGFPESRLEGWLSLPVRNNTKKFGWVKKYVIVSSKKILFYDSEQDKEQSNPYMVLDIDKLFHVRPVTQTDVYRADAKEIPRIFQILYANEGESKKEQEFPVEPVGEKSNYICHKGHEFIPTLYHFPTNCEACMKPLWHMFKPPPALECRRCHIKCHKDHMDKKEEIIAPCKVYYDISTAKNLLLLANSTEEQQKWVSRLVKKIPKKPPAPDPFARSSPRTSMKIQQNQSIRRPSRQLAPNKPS
# Experiment: Inhibition of human ROCK2
# Settings: not given
row,Compound,IC50 [nM]
1,Cc1c[nH]c2ncnc(N3CCN(C(=O)Nc4cccc(OC(=O)N(C)C)c4)[C@@H](C)C3)c12,1100
2,Cc1c[nH]c2ncnc(N3CCN(/C(=N\C#N)Nc4cccc(Br)c4)[C@@H](C)C3)c12,2700
3,Cc1c[nH]c2ncnc(N3CCN(/C(=N/C#N)Nc4ccc(F)c(Br)c4)[C@@H](C)C3)c12,2200
4,Cc1c[nH]c2ncnc(N3CCN(C(=O)Nc4ccc(F)c(Br)c4)[C@@H](C)C3)c12,280
